Source: patent US9345703B2, “Kappa opioid receptor effectors and uses thereof” (University of Kansas, priority 2011, dated 2016)

Experiments:
[1] = Hepatic microsome stability, mouse; assay type: in vitro ADME; conditions: mouse microsomes, 1 hour
Source text: The microsomal stability assay is commonly used to rank compounds according to their metabolic stability. This assay addresses the pharmacologic question of how long the parent compound will remain circulating in plasma within the body.

[2] = Plasma protein binding, human; assay type: in vitro ADME
Source text: (§1) Plasma protein binding is a measure of a drug's efficiency to bind to the proteins within blood plasma. The less bound a drug is, the more efficiently it can traverse cell membranes or diffuse. Highly plasma protein bound rugs are confined to the vascular space, thereby having a relatively low volume of distribution. In contrast, drugs that remain largely unbound in plasma are generally available for distribution to other organs and tissues. In the instant case, the Chemotype I antagonist 1{3} was marginally available with 88.46% and 80.07% bound to 1 μM and 10 μM mouse plasma protein, respectively, and 93.96% and 88.54% bound to 1 μM and 10 μM human plasma protein, respectively.

in vitro = conditions: for Papp: PAMPA
Protocol: PAMPA is used as an in vitro model of passive, transcellular permeability. An artificial membrane immobilized on a filter is placed between a donor and acceptor compartment. At the start of the test, drug is introduced in the donor compartment (at various pH). Following the permeation period, the concentrations of compound in the donor compartment and acceptor compartment are measured using UV spectroscopy.

[3] = Plasma protein binding, mouse; assay type: in vitro ADME
Source text: as §1

NET = NET (Homo sapiens, UniProt P23975); test: PDSP radioligand binding assay
Sequence of NET (P23975 whole entry): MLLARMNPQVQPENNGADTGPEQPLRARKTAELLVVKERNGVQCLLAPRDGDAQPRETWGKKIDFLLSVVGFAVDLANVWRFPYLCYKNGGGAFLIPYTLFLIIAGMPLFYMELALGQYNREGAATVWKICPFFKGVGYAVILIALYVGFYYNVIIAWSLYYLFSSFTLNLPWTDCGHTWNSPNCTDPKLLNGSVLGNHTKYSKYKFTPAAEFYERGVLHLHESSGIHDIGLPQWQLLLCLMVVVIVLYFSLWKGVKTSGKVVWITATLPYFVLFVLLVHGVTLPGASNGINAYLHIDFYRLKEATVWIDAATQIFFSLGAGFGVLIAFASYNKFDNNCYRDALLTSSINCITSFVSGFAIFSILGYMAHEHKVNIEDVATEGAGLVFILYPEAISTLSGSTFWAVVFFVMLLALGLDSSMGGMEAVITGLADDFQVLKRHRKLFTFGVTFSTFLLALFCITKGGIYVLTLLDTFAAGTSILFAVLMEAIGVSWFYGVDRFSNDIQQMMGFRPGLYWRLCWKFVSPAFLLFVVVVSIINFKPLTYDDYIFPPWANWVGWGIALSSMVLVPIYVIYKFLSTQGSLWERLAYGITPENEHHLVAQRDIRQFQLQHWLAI
Protocol: (§2) The compound was initially screened in radioligand binding assays at a constant concentration (10 μM) to identify possible activity of the compound. Results showing significant activity in the initial screen were selected for Ki determinations.
(§3) As a representative of the Chemotype II series, the MLPCN probe molecule 2{8} was subjected to a binding assay panel of 44 GPCR and other molecular targets by the Pyschoactive Drug Screening Program (PDSP) (Table 10). The compound was initially screened in a radioligand binding assay at a constant concentration (10 μM) to identify possible activity of the compound. Results showing significant activity in the initial screen were selected for Ki determinations.

M1 = M1 (Homo sapiens, UniProt P11229); test: PDSP radioligand binding assay
Sequence of M1 (P11229 whole entry): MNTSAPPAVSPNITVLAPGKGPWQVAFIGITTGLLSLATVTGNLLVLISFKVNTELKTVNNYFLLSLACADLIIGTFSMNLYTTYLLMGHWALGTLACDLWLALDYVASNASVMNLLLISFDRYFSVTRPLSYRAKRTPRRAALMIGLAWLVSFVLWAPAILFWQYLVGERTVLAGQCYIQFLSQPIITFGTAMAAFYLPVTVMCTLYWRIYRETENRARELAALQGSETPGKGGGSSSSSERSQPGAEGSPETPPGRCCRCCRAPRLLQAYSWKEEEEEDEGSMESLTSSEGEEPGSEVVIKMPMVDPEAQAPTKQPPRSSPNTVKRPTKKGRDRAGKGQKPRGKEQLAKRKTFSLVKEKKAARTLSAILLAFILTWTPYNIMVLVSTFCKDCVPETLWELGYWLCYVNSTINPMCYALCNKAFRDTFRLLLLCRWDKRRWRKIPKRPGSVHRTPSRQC
Protocol: as §2, §3

D4 = D4 (Homo sapiens, UniProt P21917); test: PDSP radioligand binding assay
Sequence of D4 (P21917 whole entry): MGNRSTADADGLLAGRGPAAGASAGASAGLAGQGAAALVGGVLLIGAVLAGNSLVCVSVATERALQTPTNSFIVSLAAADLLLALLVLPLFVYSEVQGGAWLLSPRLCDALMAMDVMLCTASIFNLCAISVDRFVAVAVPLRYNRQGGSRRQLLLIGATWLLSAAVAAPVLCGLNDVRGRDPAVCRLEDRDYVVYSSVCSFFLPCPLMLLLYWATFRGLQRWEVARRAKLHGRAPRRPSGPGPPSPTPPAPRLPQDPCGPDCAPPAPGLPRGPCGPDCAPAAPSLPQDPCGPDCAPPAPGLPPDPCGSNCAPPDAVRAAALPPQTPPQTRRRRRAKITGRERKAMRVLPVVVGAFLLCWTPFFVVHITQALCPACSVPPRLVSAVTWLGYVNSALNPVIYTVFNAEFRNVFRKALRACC
Protocol: as §2, §3

Beta2 = Beta2 (Homo sapiens, UniProt P07550); test: PDSP radioligand binding assay
Sequence of Beta2 (P07550 whole entry): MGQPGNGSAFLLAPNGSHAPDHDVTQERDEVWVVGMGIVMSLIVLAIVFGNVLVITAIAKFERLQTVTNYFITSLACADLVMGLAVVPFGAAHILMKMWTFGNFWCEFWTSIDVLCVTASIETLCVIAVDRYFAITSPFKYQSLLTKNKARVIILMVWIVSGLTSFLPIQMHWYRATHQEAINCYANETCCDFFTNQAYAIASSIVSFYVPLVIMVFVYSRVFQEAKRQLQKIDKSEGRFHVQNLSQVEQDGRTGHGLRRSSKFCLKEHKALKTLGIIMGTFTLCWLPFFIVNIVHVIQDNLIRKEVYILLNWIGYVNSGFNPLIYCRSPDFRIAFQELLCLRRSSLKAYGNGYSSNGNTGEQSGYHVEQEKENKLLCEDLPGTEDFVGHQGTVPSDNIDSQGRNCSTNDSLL
Protocol: as §2, §3

H1 = H1 (Homo sapiens, UniProt P35367); test: PDSP radioligand binding assay
Sequence of H1 (P35367 whole entry): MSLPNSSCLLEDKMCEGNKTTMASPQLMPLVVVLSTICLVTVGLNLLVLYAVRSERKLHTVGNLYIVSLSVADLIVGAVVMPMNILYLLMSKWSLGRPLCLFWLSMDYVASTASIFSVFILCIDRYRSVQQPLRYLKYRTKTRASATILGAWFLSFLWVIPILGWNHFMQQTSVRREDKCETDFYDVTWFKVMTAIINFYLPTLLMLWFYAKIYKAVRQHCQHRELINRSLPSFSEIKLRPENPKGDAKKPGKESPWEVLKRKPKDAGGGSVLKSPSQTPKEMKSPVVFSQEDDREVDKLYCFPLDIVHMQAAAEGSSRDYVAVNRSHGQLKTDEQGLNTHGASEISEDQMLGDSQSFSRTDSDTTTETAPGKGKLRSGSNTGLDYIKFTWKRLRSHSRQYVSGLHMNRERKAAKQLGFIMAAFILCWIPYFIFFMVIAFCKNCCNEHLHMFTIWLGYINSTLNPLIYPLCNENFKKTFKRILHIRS
Protocol: as §2, §3

5ht7 = 5ht7 (Homo sapiens, UniProt P34969); test: PDSP radioligand binding assay
Protocol: as §2, §3

M3 = M3 (Homo sapiens, UniProt P20309); test: PDSP radioligand binding assay
Protocol: as §2, §3

Alpha2A = Alpha2A (Homo sapiens, UniProt P08913); test: PDSP radioligand binding assay
Protocol: as §2, §3

GabaA = test: PDSP radioligand binding assay
Protocol: as §2, §3

M4 = M4 (Homo sapiens, UniProt P08173); test: PDSP radioligand binding assay
Sequence of M4 (P08173 whole entry): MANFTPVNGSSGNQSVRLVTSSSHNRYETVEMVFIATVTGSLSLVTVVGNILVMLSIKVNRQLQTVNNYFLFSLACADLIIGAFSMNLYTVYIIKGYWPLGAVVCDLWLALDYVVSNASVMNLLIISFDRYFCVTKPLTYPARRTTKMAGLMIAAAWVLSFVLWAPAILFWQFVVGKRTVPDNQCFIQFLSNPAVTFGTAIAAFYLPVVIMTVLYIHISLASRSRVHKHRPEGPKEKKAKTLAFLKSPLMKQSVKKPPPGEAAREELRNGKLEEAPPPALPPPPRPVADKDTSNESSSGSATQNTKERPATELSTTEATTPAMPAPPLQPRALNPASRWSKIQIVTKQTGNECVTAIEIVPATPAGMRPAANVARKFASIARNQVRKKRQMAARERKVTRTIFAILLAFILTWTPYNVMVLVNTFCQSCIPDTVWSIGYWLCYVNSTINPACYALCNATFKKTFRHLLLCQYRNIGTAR
Protocol: as §2, §3

Sigma1 = test: PDSP radioligand binding assay
Protocol: as §2, §3

5ht2c = 5ht2c (Homo sapiens, UniProt P28335); test: PDSP radioligand binding assay
Protocol: as §2, §3

H2 = H2 (Homo sapiens, UniProt P25021); test: PDSP radioligand binding assay
Protocol: as §2, §3

M5 = M5 (Homo sapiens, UniProt P08912); test: PDSP radioligand binding assay
Protocol: as §2, §3

Sigma2 = Sigma2 (Rattus norvegicus, UniProt Q5U3Y7); test: PDSP radioligand binding assay
Sequence of Sigma2 (Q5U3Y7 whole entry): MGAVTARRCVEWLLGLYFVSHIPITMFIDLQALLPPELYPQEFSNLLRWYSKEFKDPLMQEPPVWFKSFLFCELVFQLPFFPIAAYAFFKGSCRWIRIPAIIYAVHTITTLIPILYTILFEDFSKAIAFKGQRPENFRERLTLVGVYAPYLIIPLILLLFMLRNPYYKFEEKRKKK
Protocol: as §2, §3

Alpha1D = Alpha1D (Homo sapiens, UniProt P25100); test: PDSP radioligand binding assay
Protocol: as §2, §3

5ht2b = 5ht2b (Homo sapiens, UniProt P41595); test: PDSP radioligand binding assay
Protocol: as §2, §3

D1 = D1 (Homo sapiens, UniProt P21728); test: PDSP radioligand binding assay
Sequence of D1 (P21728 whole entry): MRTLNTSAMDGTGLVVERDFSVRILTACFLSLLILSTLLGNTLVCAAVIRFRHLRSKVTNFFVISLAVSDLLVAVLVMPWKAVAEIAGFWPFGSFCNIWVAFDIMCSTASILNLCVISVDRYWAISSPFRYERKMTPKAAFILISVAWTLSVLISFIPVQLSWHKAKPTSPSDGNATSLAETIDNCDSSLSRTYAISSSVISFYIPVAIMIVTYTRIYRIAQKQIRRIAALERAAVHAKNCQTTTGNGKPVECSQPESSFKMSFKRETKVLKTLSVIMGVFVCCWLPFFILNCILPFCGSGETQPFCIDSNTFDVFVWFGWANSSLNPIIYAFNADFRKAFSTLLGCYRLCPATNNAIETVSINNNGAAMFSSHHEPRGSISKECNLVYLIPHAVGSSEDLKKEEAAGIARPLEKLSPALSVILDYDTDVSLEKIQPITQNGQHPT
Protocol: as §2, §3

H4 = H4 (Homo sapiens, UniProt Q9H3N8); test: PDSP radioligand binding assay
Protocol: as §2, §3

5ht3 = 5ht3 (Homo sapiens, UniProt P46098); test: PDSP radioligand binding assay
Protocol: as §2, §3

5ht1e = 5ht1e (Homo sapiens, UniProt P28566); test: PDSP radioligand binding assay
Protocol: as §2, §3

BZP Rat Brain Site = test: PDSP radioligand binding assay
Protocol: as §2, §3

5ht6 = 5ht6 (Homo sapiens, UniProt P50406); test: PDSP radioligand binding assay
Protocol: as §2, §3

SERT = SERT (Homo sapiens, UniProt P31645); test: PDSP radioligand binding assay
Sequence of SERT (P31645 whole entry, species assumed): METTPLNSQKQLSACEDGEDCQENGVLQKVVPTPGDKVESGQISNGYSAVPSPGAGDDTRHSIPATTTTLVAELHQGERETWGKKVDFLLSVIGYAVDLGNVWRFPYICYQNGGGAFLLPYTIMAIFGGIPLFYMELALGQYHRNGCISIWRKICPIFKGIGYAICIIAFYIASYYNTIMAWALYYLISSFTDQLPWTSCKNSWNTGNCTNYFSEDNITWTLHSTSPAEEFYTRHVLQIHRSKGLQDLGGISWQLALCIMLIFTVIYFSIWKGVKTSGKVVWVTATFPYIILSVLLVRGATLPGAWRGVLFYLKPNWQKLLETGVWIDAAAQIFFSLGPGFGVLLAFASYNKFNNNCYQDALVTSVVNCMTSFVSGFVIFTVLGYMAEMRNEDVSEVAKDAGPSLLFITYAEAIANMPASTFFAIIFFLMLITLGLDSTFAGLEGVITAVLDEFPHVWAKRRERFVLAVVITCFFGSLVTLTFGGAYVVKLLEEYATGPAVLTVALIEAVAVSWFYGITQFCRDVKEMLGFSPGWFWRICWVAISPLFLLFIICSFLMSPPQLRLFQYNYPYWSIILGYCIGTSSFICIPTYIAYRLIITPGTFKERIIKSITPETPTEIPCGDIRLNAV
Protocol: as §2, §3

Plasma stability, mouse = assay type: in vitro ADME
Source text: Plasma stability is a measure of the stability of small molecules and peptides in plasma and is an important parameter that can strongly influence the in vivo efficacy of a test compound. Drug candidates are exposed in plasma to enzymatic processes (proteinases, esterases), and they can undergo intramolecular rearrangement or bind irreversibly (covalently) to proteins.

D3 = D3 (Homo sapiens, UniProt P35462); test: PDSP radioligand binding assay
Sequence of D3 (P35462 whole entry): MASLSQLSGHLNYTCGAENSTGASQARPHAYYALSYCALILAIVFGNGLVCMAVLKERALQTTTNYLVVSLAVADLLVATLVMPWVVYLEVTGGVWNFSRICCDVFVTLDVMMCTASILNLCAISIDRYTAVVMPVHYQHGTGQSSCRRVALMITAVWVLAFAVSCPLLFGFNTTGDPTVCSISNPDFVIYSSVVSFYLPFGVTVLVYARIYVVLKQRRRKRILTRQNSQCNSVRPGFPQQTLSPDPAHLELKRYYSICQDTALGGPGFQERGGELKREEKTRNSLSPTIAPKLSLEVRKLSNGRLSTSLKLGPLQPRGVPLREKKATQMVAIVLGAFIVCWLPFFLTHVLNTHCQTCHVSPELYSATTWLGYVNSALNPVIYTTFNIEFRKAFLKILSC
Protocol: (§4) The broader selectivity of compound 1{3} was tested against additional targets and basic pharmacological properties were assessed. […] The compound was initially screened in radioligand binding assays at a constant concentration (10 μM) to identify possible activity of the compound. Results showing significant activity in the initial screen were selected for Ki determinations.
as §3

MOR = MOR (Homo sapiens, UniProt P35372); test: PDSP radioligand binding assay
Sequence of MOR (P35372 whole entry): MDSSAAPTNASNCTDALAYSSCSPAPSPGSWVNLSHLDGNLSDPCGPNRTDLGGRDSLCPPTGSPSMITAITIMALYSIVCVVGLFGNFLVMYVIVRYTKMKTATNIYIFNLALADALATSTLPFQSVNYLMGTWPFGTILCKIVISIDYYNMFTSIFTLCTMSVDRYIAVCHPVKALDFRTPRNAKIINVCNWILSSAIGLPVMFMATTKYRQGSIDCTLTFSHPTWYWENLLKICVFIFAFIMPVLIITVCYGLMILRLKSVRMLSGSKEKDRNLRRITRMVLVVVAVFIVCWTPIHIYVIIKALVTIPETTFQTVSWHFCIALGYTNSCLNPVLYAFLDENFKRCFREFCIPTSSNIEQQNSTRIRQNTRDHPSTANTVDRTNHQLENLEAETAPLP
Protocol: as §4, §3

DOR = DOR (Homo sapiens, UniProt P41143); test: PDSP radioligand binding assay
Protocol: as §4, §3

[4] = Table 10, average of separate Ki determinations

## COc1ccc(N2CCN(CCCNC(=O)Cn3c(=O)c4cccn4c4c(C)ccnc43)CC2)cc1 [Compound 1{3}, N-(3-(4-(4-Methoxyphenyl)piperazin-1-yl)propyl)-2-(1-methyl-6-oxopyrido[2,3-e]pyrrolo[1,2-a]pyrazin-5(6H)-yl)acetamide]
[1]
  microsomal stability, remaining: 7.3%
[2]; plasma, human, 1 μM, read-out: bound to plasma protein (converted)
  fraction unbound at 1 μM: 0.0604
[2]; plasma, human, 10 μM, read-out: bound to plasma protein (converted)
  fraction unbound at 10 μM: 0.115
In vitro; pH 5
  Papp: 27 ×10⁻⁶ cm/s
In vitro; pH 6.2
  Papp: 227 ×10⁻⁶ cm/s
In vitro; pH 7.4
  Papp: 757 ×10⁻⁶ cm/s
[3]; plasma, mouse, 1 μM, read-out: bound to plasma protein (converted)
  fraction unbound at 1 μM: 0.115
[3]; plasma, mouse, 10 μM, read-out: bound to plasma protein (converted)
  fraction unbound at 10 μM: 0.199
NET; Table 5
  Ki: 0.685 µM
M1; Table 5
  Ki: > 10 µM
D4; Table 5
  Ki: > 10 µM
Beta2; Table 5
  Ki: > 10 µM
H1; Table 5
  Ki: 0.454 µM
5ht7; Table 5
  Ki: > 10 µM
M3; Table 5
  Ki: > 10 µM
Alpha2A; Table 5
  Ki: > 10 µM
GabaA; Table 5
  Ki: > 10 µM
M4; Table 5
  Ki: > 10 µM
Sigma1; Table 5
  Ki: > 10 µM
5ht2c; Table 5
  Ki: > 10 µM
H2; Table 5
  Ki: 3.5 µM
M5; Table 5
  Ki: 6.4 µM
Sigma2; Table 5
  Ki: > 10 µM
Alpha1D; Table 5
  Ki: > 10 µM
5ht2b; Table 5
  Ki: 1.92 µM
D1; Table 5
  Ki: > 10 µM
H4; Table 5
  Ki: > 10 µM
5ht3; Table 5
  Ki: > 10 µM
5ht1e; Table 5
  Ki: > 10 µM
BZP Rat Brain Site; Table 5
  Ki: > 10 µM
5ht6; Table 5
  Ki: > 10 µM
SERT; Table 5
  Ki: 5.33 µM
Plasma stability, mouse; mouse, plasma, 3 h
  plasma stability, remaining: 100%
D3; Table 5
  Ki: 0.25 µM
MOR; Table 5
  Ki: 1.58 µM
DOR; Table 5
  Ki: 1.44 µM

## Clc1ccc(CSc2nnc(-c3ccccn3)n2Cc2ccco2)cc1Cl [Compound 2{8}]
[1]
  microsomal stability, remaining: 0.03%
[2]; human plasma
  bound to plasma: > 99%
In vitro; donor pH 5
  PAMPA permeability: 1793 ×10⁻⁶ cm/s
In vitro; donor pH 6.2
  PAMPA permeability: 1921 ×10⁻⁶ cm/s
In vitro; donor pH 7.4
  PAMPA permeability: 2089 ×10⁻⁶ cm/s
[3]; mouse plasma
  bound to plasma: > 99%
NET; Table 10
  Ki: 5.87 µM
M1; Table 10
  Ki: > 10 µM
D4; Table 10
  Ki: > 10 µM
Beta2; Table 10
  Ki: > 10 µM
H1; Table 10
  Ki: > 10 µM
5ht7; Table 10
  Ki: > 10 µM
M3; Table 10
  Ki: > 10 µM
Alpha2A; Table 10
  Ki: > 10 µM
GabaA; Table 10
  Ki: > 10 µM
M4; Table 10
  Ki: > 10 µM
Sigma1; Table 10
  Ki: > 10 µM
5ht2c; Table 10
  Ki: > 10 µM
H2; Table 10
  Ki: > 10 µM
M5; Table 10
  Ki: 4.42 µM
Sigma2; Table 10
  Ki: 2.91 µM
Alpha1D; Table 10
  Ki: > 10 µM
5ht2b; Table 10
  Ki: 1.24 µM
D1; Table 10
  Ki: 1.8 µM
H4; Table 10
  Ki: > 10 µM
5ht3; Table 10
  Ki: > 10 µM
5ht1e; Table 10
  Ki: > 10 µM
BZP Rat Brain Site; Table 10
  Ki: > 10 µM
5ht6; Table 10
  Ki: > 10 µM
SERT; Table 10
  Ki: > 10 µM
Plasma stability, mouse; mouse plasma, 3 hours
  plasma stability, remaining: 100%
D3; Table 10
  Ki: > 10 µM
MOR; [4]
  Ki: 1.9 µM
DOR; [4]
  Ki: 5.35 µM
